According to ChEMBL document CHEMBL3870313, “Synthesis and structure-activity relationship study of tacrine-based pyrano[2,3-c]pyrazoles targeting AChE/BuChE and 15-LOX” (Eur J Med Chem, 2016):

Columns and labels:
[1] = biological target: T1, Acetylcholinesterase (Electrophorus electricus, UniProt O42275)
Description: Inhibition of electric eel AChE using acetylthiocholine iodide as substrate incubated for 5 mins followed by substrate addition measured for 1 min by Ellman's method

[2] = biological target: Cholinesterase (Homo sapiens, UniProt P06276)
Description: Inhibition of human recombinant BChE using butyrylthiocholine iodide as substrate incubated for 5 mins followed by substrate addition measured for 1 min by Ellman's method

[3] = in vitro; conditions: human, HepG2 cells
Description: Cytotoxicity against human HepG2 cells assessed as cell viability at 5 uM after 24 hrs by MTT assay

[4] = biological target: T1, Acetylcholinesterase; assay: Mixed type inhibition of electric eel AChE using acetylthiocholine iodide as substrate incubated for 5 mins followed by substrate addition measured for 1 min by Lineweaver-Burk plot analysis
[5] = in vitro; conditions: human, HepG2 cells; remark: listed apart in the source
Description: Cytotoxicity against human HepG2 cells assessed as cell viability at 300 uM after 24 hrs by MTT assay

[6] = in vitro; conditions: human, HepG2 cells; remark: listed apart in the source
Description: Cytotoxicity against human HepG2 cells assessed as cell viability at 1 uM after 24 hrs by MTT assay

[7] = in vitro; conditions: human, HepG2 cells; remark: listed apart in the source
Description: Cytotoxicity against human HepG2 cells assessed as cell viability at 50 uM after 24 hrs by MTT assay

[8] = biological target: Acetylcholinesterase (Electrophorus electricus) (UniProt O42275); assay: Potency index, ratio of tacrine IC50 to compound IC50 for electric eel AChE
Sequence of Acetylcholinesterase (Electrophorus electricus) (O42275 24-633 limits assumed): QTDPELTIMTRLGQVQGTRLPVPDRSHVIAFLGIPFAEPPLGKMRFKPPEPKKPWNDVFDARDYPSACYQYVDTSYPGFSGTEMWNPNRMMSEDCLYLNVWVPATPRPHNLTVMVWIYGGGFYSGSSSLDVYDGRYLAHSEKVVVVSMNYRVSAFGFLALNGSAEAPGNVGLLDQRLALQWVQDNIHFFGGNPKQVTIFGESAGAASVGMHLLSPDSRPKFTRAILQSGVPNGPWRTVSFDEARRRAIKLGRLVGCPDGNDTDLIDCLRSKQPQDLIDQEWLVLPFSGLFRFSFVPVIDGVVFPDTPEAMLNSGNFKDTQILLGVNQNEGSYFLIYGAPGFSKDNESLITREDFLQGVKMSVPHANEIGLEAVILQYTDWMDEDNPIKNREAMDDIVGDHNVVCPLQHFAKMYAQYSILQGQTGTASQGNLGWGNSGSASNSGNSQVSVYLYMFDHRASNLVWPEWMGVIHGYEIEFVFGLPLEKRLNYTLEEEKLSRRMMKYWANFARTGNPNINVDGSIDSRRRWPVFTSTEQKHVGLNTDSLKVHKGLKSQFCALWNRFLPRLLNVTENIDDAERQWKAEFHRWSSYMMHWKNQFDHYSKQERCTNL

[9] = in vitro; conditions: human, HepG2 cells; remark: listed apart in the source
Description: Cytotoxicity against human HepG2 cells assessed as cell viability at 100 uM after 24 hrs by MTT assay

[10] = in vitro; conditions: human, HepG2 cells; remark: listed apart in the source
Description: Cytotoxicity against human HepG2 cells assessed as cell viability at 10 uM after 24 hrs by MTT assay

[11] = in vitro; conditions: human, HepG2 cells; remark: listed apart in the source
Description: Cytotoxicity against human HepG2 cells assessed as cell viability at 25 uM after 24 hrs by MTT assay

T1 sequence (O42275 whole entry): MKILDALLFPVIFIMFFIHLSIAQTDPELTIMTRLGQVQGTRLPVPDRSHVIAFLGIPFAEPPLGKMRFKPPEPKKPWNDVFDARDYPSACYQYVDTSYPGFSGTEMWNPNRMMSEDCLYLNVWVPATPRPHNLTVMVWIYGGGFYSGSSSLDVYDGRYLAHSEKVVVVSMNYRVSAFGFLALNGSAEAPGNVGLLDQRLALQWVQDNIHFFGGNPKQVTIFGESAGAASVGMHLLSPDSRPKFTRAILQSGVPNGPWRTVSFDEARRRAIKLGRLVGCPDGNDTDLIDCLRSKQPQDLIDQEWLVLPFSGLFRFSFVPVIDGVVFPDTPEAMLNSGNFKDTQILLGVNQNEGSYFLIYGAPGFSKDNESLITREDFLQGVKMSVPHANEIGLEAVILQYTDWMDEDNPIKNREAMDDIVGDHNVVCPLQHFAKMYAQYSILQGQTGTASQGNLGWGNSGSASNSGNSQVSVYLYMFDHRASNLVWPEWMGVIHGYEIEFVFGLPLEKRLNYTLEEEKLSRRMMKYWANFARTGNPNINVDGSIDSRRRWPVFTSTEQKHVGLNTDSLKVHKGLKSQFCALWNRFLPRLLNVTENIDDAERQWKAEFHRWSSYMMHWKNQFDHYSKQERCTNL
Sequence of Cholinesterase (P06276 whole entry): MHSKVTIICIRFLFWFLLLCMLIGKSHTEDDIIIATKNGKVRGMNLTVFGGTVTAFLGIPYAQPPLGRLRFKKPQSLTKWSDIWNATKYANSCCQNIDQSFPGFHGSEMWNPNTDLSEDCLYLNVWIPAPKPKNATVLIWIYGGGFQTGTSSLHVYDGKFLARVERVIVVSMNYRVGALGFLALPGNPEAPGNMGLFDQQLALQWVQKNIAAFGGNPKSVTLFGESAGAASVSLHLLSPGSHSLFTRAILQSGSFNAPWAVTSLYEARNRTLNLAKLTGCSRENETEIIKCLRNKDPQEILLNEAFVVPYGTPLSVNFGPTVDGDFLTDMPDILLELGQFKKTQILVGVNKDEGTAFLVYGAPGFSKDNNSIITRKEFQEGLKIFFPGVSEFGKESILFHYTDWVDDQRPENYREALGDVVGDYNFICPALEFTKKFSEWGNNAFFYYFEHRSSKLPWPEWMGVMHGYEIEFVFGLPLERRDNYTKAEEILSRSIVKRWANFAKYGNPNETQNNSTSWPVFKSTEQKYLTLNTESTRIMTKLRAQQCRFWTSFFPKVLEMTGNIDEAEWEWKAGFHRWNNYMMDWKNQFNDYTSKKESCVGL

| Structure (SMILES) | IC50 [1] | IC50 [2] | other results |
| --- | --- | --- | --- |
| CCCc1n[nH]c2c1C(c1ccc([N+](=O)[O-])cc1)c1c(nc3c(c1N)CCCC3)O2 (stereo unspecified) | 744 nM | 29 nM | – |
| Nc1c2c(cc3c1C(c1ccc(F)cc1)c1c(-c4ccccc4)n[nH]c1O3)CCCC2 (stereo unspecified) | 34 nM | 7 nM | viability at 24 h, 5 µM [3]: 100%; Ki [4]: 490 nM; viability at 24 h, 300 µM [5]: 73.4%; viability at 24 h, 1 µM [6]: 101%; viability at 24 h, 50 µM [7]: 98.4%; Ratio IC50 [8]: 6; viability at 24 h, 100 µM [9]: 89.9%; viability at 24 h, 10 µM [10]: 100%; viability at 24 h, 25 µM [11]: 99.7% |
| COc1ccc(C2c3c(-c4ccccc4)n[nH]c3Oc3cc4c(c(N)c32)CCCC4)cc1 (stereo unspecified) | 81 nM | 7 nM | viability at 24 h, 5 µM [3]: 99.4%; viability at 24 h, 300 µM [5]: 71.3%; viability at 24 h, 1 µM [6]: 99.1%; viability at 24 h, 50 µM [7]: 98.2%; viability at 24 h, 100 µM [9]: 85.6%; viability at 24 h, 10 µM [10]: 99.7%; viability at 24 h, 25 µM [11]: 99.7% |
| CCCc1n[nH]c2c1C(c1ccc(C#N)cc1)c1c(nc3c(c1N)CCCC3)O2 (stereo unspecified) | 954 nM | 37 nM | – |
| Nc1c2c(cc3c1C(c1ccc(Cl)cc1)c1c(-c4ccccc4)n[nH]c1O3)CCCC2 (stereo unspecified) | 260 nM | 21 nM | – |
| CCCc1n[nH]c2c1C(c1ccc(N(C)C)cc1)c1c(nc3c(c1N)CCCC3)O2 (stereo unspecified) | 347 nM | 24 nM | – |
| Nc1c2c(nc3c1C(c1ccccc1)c1c(-c4ccccc4)nn(-c4ccccc4)c1O3)CCCC2 (stereo unspecified) | > 200000 nM | > 200000 nM | – |
| CCCc1n[nH]c2c1C(c1ccc(Cl)cc1)c1c(nc3c(c1N)CCCCC3)O2 (stereo unspecified) | 1060 nM | 75 nM | – |
| COc1cc(C2c3c(-c4ccccc4)n[nH]c3Oc3nc4c(c(N)c32)CCCC4)cc(OC)c1OC (stereo unspecified) | 1030 nM | 65 nM | – |
| Cc1ccc(C2c3c(-c4ccccc4)n[nH]c3Oc3cc4c(c(N)c32)CCCC4)cc1 (stereo unspecified) | 98 nM | 11 nM | – |
| CCCc1n[nH]c2c1C(c1cccc(Br)c1)c1c(nc3c(c1N)CCCC3)O2 (stereo unspecified) | 472 nM | 15 nM | – |
| CCCc1n[nH]c2c1C(c1ccc(SC)cc1)c1c(nc3c(c1N)CCCC3)O2 (stereo unspecified) | 201 nM | 8 nM | – |
| Nc1c2c(nc3c1C(c1ccc(Cl)cc1)c1c(-c4ccccc4)n[nH]c1O3)CCCCC2 (stereo unspecified) | 1920 nM | 77 nM | – |
| Nc1c2c(cc3c1C(c1ccccc1)c1c(-c4ccccc4)n[nH]c1O3)CCCC2 (stereo unspecified) | 140 nM | 8 nM | – |
| CCCc1n[nH]c2c1C(c1cccc([N+](=O)[O-])c1)c1c(nc3c(c1N)CCCC3)O2 (stereo unspecified) | 423 nM | 12 nM | – |
| CCCc1n[nH]c2c1C(c1ccc(OC)c(OC)c1)c1c(nc3c(c1N)CCCC3)O2 (stereo unspecified) | 1470 nM | 365 nM | – |
| CCCc1n[nH]c2c1C(c1ccc(C)cc1)c1c(nc3c(c1N)CSCC3)O2 (stereo unspecified) | 1030 nM | 73 nM | – |
| CCCc1n[nH]c2c1C(c1ccc(C)cc1)c1c(nc3c(c1N)CCCC3)O2 (stereo unspecified) | 120 nM | 13 nM | – |
| CCCc1n[nH]c2c1C(c1ccc(Cl)cc1)c1c(nc3c(c1N)CCCC3)O2 (stereo unspecified) | 200 nM | 10 nM | – |
| Nc1c2c(nc3c1C(c1ccccc1)c1c(-c4ccccc4)n[nH]c1O3)CCCCC2 (stereo unspecified) | 54 nM | 9 nM | – |
| CC(C)C1c2c(-c3ccccc3)n[nH]c2Oc2nc3c(c(N)c21)CCCC3 (stereo unspecified) | 15000 nM | 570 nM | – |
| Nc1c2c(nc3c1C(c1ccc(Cl)cc1)c1c(-c4ccccc4)n[nH]c1O3)CCSC2 (stereo unspecified) | 450 nM | 30 nM | – |
| CCCc1n[nH]c2c1C(c1ccccc1)c1c(nc3c(c1N)CCCCC3)O2 (stereo unspecified) | 650 nM | 43 nM | – |
| Nc1c2c(nc3c1C(c1ccccc1)c1c(-c4ccco4)nn(-c4ccccc4)c1O3)CCCC2 (stereo unspecified) | 72 nM | 5 nM | viability at 24 h, 5 µM [3]: 95.8%; viability at 24 h, 300 µM [5]: 67.4%; viability at 24 h, 1 µM [6]: 99.6%; viability at 24 h, 50 µM [7]: 81.4%; viability at 24 h, 100 µM [9]: 75.7%; viability at 24 h, 10 µM [10]: 90.3%; viability at 24 h, 25 µM [11]: 85% |
| CCCc1n[nH]c2c1C(c1ccc(OC)cc1)c1c(nc3c(c1N)CCCC3)O2 (stereo unspecified) | 52 nM | 6 nM | – |
| CCCc1n[nH]c2c1C(c1ccccc1OC)c1c(nc3c(c1N)CCCC3)O2 (stereo unspecified) | 471 nM | 18 nM | – |
| CCCc1n[nH]c2c1C(c1cc(OC)c(OC)c(OC)c1)c1c(nc3c(c1N)CCCC3)O2 (stereo unspecified) | 900 nM | 42 nM | – |
| Nc1c2c(nc3c1C(c1ccccc1)c1c(-c4ccco4)n[nH]c1O3)CCCC2 (stereo unspecified) | 100 nM | 15 nM | – |
| CCCc1n[nH]c2c1C(c1ccc(Cl)cc1)c1c(nc3c(c1N)CSCC3)O2 (stereo unspecified) | 300 nM | 15 nM | – |
